This is an account of results in patent publication US20230382948A1, “DELIVERY OF ENDOTHELIAL CELL-LADEN MICROGEL ELICITS ANGIOGENESIS IN SELF-ASSEMBLING ULTRASHORT PEPTIDE HYDROGELS” (KING ABDULLAH UNIVERSITY OF SCIENCE AND TECHNOLOGY, priority 2020, published 2023).

One data set in a line: SEM of microgels. The data set is classed as physicochemical. To be noted: for Microgel surface fiber bundle thickness: SEM. The method, then:
The surface topography of the microgels was visualized using a FEI Magellan XHR Scanning Electron Microscope with an accelerating voltage of 3 kV. The SEM samples were prepared by dehydrating the peptide microgels in a gradually increasing ethanol concentration. The dehydrated microgels were then dried in a Leica EM CPD300. The dried peptides were sputter coated with 5 nm […] before imaging.

The test system of another data set is HUVECs. The data set can be described thus: 3D SUP hydrogel bead assay coculture (angiogenesis in vitro assay). As to conditions: for Endothelial network formation in bulky hydrogel: after 20 days of coculture, HUVEC-laden microgels, HDFn-loaded bulky hydrogel. The data set is classed as cell-based, human. The protocol: This assay was done by iterating the 4 combinations between SUP bulk-hydrogels ((3) and SUP microgels (p) (i.e., β-IVFK (SEQ ID NO. 1)+μ-IVFK (SEQ ID NO. 1); β-IVFK (SEQ ID NO. 1)+μ-IVZK (SEQ ID NO. 2); βIVZK (SEQ ID NO. 2)+μ-IVFK (SEQ ID NO. 1); β-IVZK (SEQ ID NO. 2)+μ-IVZK (SEQ ID NO. 2)). The next procedure is the same for all combinations using as an example β-IVFK (SEQ ID NO. 1)+μ-IVFK (SEQ ID NO. 1). HUVECs were cultured on μ-IVFK (SEQ ID NO. 1) for 24 h as described previously. By the bead assay seeding day, IVFK (SEQ ID NO. 1) powder for β-hydrogel was dissolved at 8 mg/mL in sterile water 1 h before seeding. Meanwhile, HDFn cells were harvested and resuspended in 2 xPBS at 1.2×10^6 HDFn cells/mL, and simultaneously, HUVEC laden μ-IVFK (SEQ ID NO. 1) were spun down in a tube at 50 g for 5 min. The supernatant was discarded, and 200 μL of HUVEC-ladenμ-IVFK (SEQ ID NO. 1) was mixed with 200 μL of HDFn cells in 2×PBS. Immediately, 100 μL of IVFK (SEQ ID NO. 1) solution at 8 mg/mL was poured on the culture dish and mixed with 100 μL of HUVEC-laden μ-IVFK (SEQ ID NO. 1) with HDFn cells in 2×PBS. The 3D hydrogel bead assay coculture was incubated at 37° C. for 10 min to guarantee β-IVFK (SEQ ID NO. 1) gelation. The final concentration of β-IVFK (SEQ ID NO. 1) was 4 mg/mL. Afterward, 2 mL of EGM-2 (EBM supplemented with singleQuots) was added to each dish containing the 3D hydrogel bead assay coculture, and the medium was changed every other day until fixation for immunofluorescence on culture day 8 and day 21.
The medium was removed from the 3D SUP hydrogel bead assay coculture samples and incubated with PBS at 37° C. for 15 min. Samples were fixed with 4% formaldehyde (v/v) in PBS for 30 min at 22° C. and washed with PBS for 15 min at 22° C. under rocking. Later, samples were detached from the bottom of the plate using a bent spatula and transferred to individual wells in a 24-well plate where they were permeabilized with 0.5 mL per well of (v/v) Triton® X-100 in PBS for 1 h at 22° C. under rocking. After, samples were blocked overnight at 4° C. in a wet chamber under rocking with 0.5 mL per well of 10% (v/v) goat serum in PBS containing 0.01% (v/v) Triton® X-100. From the next step and on, samples were protected from light all of the time. Samples were incubated for 36 h at 4° C. in a wet chamber under rocking with anti-CD31 Alexa® Fluor 647 and anti-Vimentin Alexa® Fluor 488, both diluted 1/100 in blocking buffer. Samples were washed with PBS for […] at 22° C. with shaking, replacing the PBS every hour. Then, cell nuclei were stained with 0.1 μg/mL DAPI in PBS for 5 min at 22° C. and washed three times with PBS for 5 min Finally, samples were transferred to 27 mm glass bottom dishes and imaged with a CLSM Zeiss® 710 or 880. Imaging of the entire sample was done by whole mount Z-stack tile scanning, and zoom-in images were Z-stack imaging with orthogonal views. Maximum intensity projections of the whole mount and zoom-in are presented.

Consider “Ac-Ile-Val-Phe-Lys-NH2 (Ac-IVFK-NH2) [self-assembling ultrashort tetrapeptide, forms hydrogels and microgels]”, for which, in the data set “SEM of microgels”, the “Microgel surface fiber bundle thickness” value is reported as “around 20 nm”. The “Endothelial network, comparison of bulky hydrogels” value with HUVECs (IVFK versus IVZK bulky hydrogel, 20 days of coculture) was “more extended and complex”. Further, the “Lumen (branched hollow structures), comparison of bulky hydrogels” value in the data set on HUVECs (IVFK versus IVZK bulky hydrogels) was “more visible and also larger”. Moreover, the “Endothelial network formation in bulky hydrogel” value in the data set with HUVECs is “developed an evident endothelial network”.
“Ac-Ile-Val-Cha-Lys-NH2 (IVXK; HELM PEPTIDE1{[ac].I.V.[Cha].K.[am]}$$$$V2.0; SMILES CC[C@H](C)[C@H](NC(C)=O)C(=O)N[C@H](C(=O)N[C@@H](CC1CCCCC1)C(=O)N[C@@H](CCCCN)C(N)=O)C(C)C) [IVZK, self-assembling ultrashort tetrapeptide, Z = cyclohexylalanine, forms hydrogels and microgels]”: in “SEM of microgels” (1.5 wt %, critical point drier), the “Microgel stability through SEM sample preparation” value is listed as “stable enough to maintain their 3D spherical structure”. Besides, the “Microgel surface fiber bundle thickness” value in “SEM of microgels” was “around 20 nm”. Besides, the “Endothelial network formation in bulky hydrogel” value in the data set with HUVECs is “developed an evident endothelial network”. In addition, the Endothelial sprouting result in the data set on HUVECs (soft bulk hydrogel 4 mg/mL, after 8 days in culture) is given as “show initial signs of sprouting”.
